Assay results from patent US20050250175A1, “Bacterial cell wall skeleton component preparaion” (priority 2002, published 2005).

Experiment: Viscosity of paste comprising BCG-CWS, co-axial bicylindrical viscometer
Type: physicochemical
Settings: unit not given
Description: “Viscosity” as used herein means a value determined by dynamic viscoelasticity measurement, for example, values obtained using a co-axial bicylindrical viscometer. In the present invention, viscosity may be measured using a co-axial bicylindrical viscometer manufactured by Rheology Co., Ltd (Model MR-300, Soliquid meter) at 25° C. under nitrogen atmosphere. One poise represents 0.1 Pa·s (pascal.sec).
The viscosity of the paste was measured at 25° C. using a co-axial bicylindrical viscometer manufactured by Rheology Co., Ltd (Model MR-300, Soliquid meter). The viscosity was measured to be 0.545 poise.

Structure (SMILES): CC(C)CCCC(C)CCCC(C)CCCCC(C)CCCC(C)CCCC(C)C (stereo not shown) [squalane]
- viscosity: 0.236
